Reference: patent US8008505B2, “Indazole or 4,5,6,7-tetrahydro-indazole derivatives” (Hoffmann-La Roche Inc., priority 2008, dated 2011)
pIC50: −log10 of the molar value.

Biological target: T1, FXR ligand binding domain (Homo sapiens, UniProt Q96RI1)
T1 sequence (Q96RI1 1-486): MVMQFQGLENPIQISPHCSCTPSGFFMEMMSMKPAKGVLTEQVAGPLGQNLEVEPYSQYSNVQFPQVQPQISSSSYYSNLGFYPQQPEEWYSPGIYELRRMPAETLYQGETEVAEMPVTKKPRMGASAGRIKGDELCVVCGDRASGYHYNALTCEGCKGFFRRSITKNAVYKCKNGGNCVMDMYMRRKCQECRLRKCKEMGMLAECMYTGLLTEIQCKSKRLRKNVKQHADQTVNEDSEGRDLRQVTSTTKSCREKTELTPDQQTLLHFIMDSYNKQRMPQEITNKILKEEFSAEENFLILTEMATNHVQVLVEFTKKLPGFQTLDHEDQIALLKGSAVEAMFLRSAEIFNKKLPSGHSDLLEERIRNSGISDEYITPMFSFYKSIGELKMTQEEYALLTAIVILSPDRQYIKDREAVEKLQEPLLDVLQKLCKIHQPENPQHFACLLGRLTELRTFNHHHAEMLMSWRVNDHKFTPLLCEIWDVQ
Assay: Radioligand binding assay (radioligand displacement, scintillation proximity)
Details: GST-FXR LBD fusion protein on SPA beads, radioligand 2,N-dicyclohexyl-2-[2-(2,4 dimethoxy-phenyl)-benzoimidazol-1-yl]-acetamide, RT 30 minutes
Procedure: The following tests were carried out in order to determine the activity of the compounds of formula I. Background information on the binding assay can be found in: Nichols J S et al. “Development of a scintillation proximity assay for peroxisome proliferator-activated receptor gamma ligand binding domain”, (1998) Anal. Biochem. 257: 112-119.
Bacterial and mammalian expression vectors were constructed to produce glutathione-s-transferase (GST) and Gal4 DNA binding domain (GAL) proteins fused to the ligand binding domain (LBD) of human FXR (aa 193-473). To accomplish this, the portions of the sequences encoding the FXR LBD were amplified by polymerase chain reaction (PCR) from a full-length clone by PCR and then subcloned into the plasmid vectors. The final clone was verified by DNA sequence analysis.
The induction, expression, and subsequent purification of GST-LBD fusion protein was performed in E. coli strain BL21(pLysS) cells by standard methods (Current Protocols in Molecular Biology, Wiley Press, ed. Ausubel et al).
Radioligand Binding Assay
Binding of test substances to the FXR ligand binding domain was assessed in a radioligand displacement assay. The assay was performed in a buffer consisting of 50 mM Hepes, pH 7.4, 10 mM NaCl, 5 mM MgCl2. For each reaction well in a 96-well plate, 40 nM of GST-FXR LBD fusion protein was bound to 10 μg glutathione ytrium silicate SPA beads (Pharmacia Amersham) in a final volume of 50 μl by shaking. A radioligand (eg. 40 nM) of 2,N-dicyclohexyl-2-[2-(2,4 dimethoxy-phenyl)-benzoimidazol-1-yl]-acetamide) was added, and the reaction incubated at RT for 30 minutes in the presence of test compounds followed by scintillation proximity counting. All binding assays were performed in 96-well plates and the amount of bound ligand was measured on a Packard TopCount using OptiPlates (Packard). Dose response curves were performed within a range of concentration from 6×10^−9 M to 2.5×10^−5 M.

| Compound | pIC50 |
| --- | --- |
| O=C(N[C@H]1CC[C@H](O)CC1)C(c1c2c(nn1-c1ccc(Cl)cc1)CCCC2)C1CCCCC1 (mixture of isomers) [Example 59, [rac]-2-[2-(4-Chloro-phenyl)-4,5,6,7-tetrahydro-2H-indazol-3-yl]-2-cyclohexyl-(trans)-N-(4-hydroxy-cyclohexyl)-acetamide] | 5.52 |
| O=C(O)CCc1ccc(NC(=O)C(c2c3c(nn2-c2ccc(Cl)cc2)CCCC3)C2CCCCC2)c(F)c1 (racemic) [Example 61, [rac]-3-(4-{2-[2-(4-Chloro-phenyl)-4,5,6,7-tetrahydro-2H-indazol-3-yl]-2-cyclohexyl-acetylamino}-3-fluoro-phenyl)-propionic acid] | 6.89 |
| O=C(O)c1ccc(NC(=O)C(c2c3c(nn2-c2ccc(Cl)cc2)CCCC3)C2CCCCC2)c(Cl)c1 (racemic) [Example 62, [rac]-3-Chloro-4-{2-[2-(4-chloro-phenyl)-4,5,6,7-tetrahydro-2H-indazol-3-yl]-2-cyclohexyl-acetylamino}-benzoic acid] | 7.10 |
| O=C(O)c1ccc(SCC(c2c3c(nn2-c2ccc(Cl)cc2)CCCC3)C2CCCCC2)cc1 (racemic) [Example 63, [rac]-4-{2-[2-(4-Chloro-phenyl)-4,5,6,7-tetrahydro-2H-indazol-3-yl]-2-cyclohexyl-ethylsulfanyl}-benzoic acid] | 6.70 |
| Clc1ccc(-n2nc3c(c2C(CNc2ccc(-c4nnn[nH]4)cc2)C2CCCCC2)CCCC3)cc1 (racemic) [Example 65, [rac]-{2-[2-(4-Chloro-phenyl)-4,5,6,7-tetrahydro-2H-indazol-3-yl]-2-cyclohexyl-ethyl}-[4-(1H-tetrazol-5-yl)-phenyl]-amine] | 8.40 |
| O=C(NC1CCCCC1)C(c1ccccc1)c1c2ccccc2nn1-c1ccccc1 (stereo not drawn) [Example 3, N-Cyclohexyl-2-phenyl-2-(2-phenyl-2H-indazol-3-Y1)-acetamide] | 5.13 |
| O=C(O)c1ccc(NC(=O)C(O)(c2c3c(nn2-c2ccc(Cl)cc2)CCCC3)C2CCCCC2)c(F)c1 (stereo not drawn) [Example 5, 4-{2-[2-(4-Chloro-phenyl)-4,5,6,7-tetrahydro-2H-indazol-3-yl]-2-cyclohexyl-2-hydroxy-acetylamino}-3-fluoro-benzoic acid] | 5.69 |
| O=C(NC1CCCC1)C(c1c2c(nn1-c1ccc(Cl)cc1)CCCC2)C1CCCCC1 (stereo not drawn) [Example 8, 2-[2-(4-Chloro-phenyl)-4,5,6,7-tetrahydro-2H-indazol-3-yl]-2-cyclohexyl-N-cyclopentyl-acetamide] | 5.97 |
| O=C(NC1CCCC1)C(O)(c1c2c(nn1-c1ccc(Cl)cc1)CCCC2)C1CCCCC1 (stereo not drawn) [Example 9, 2-[2-(4-Chloro-phenyl)-4,5,6,7-tetrahydro-2H-indazol-3-yl]-2-cyclohexyl-N-cyclopentyl-2-hydroxy-acetamide] | 5.31 |
| O=C(O)c1ccc(NC(=O)C(c2c3c(nn2-c2ccc(Cl)cc2)CCCC3)C2CCCCC2)c(F)c1 (stereo not drawn) [Example 11, 4-{2-[2-(4-Chloro-phenyl)-4,5,6,7-tetrahydro-2H-indazol-3-yl]-2-cyclohexyl-acetylamino}-3-fluoro-benzoic acid] | 5.89 |

Continued, values first:

| pIC50 | Compound |
| --- | --- |
| 7.24 | Fc1cc2nn(-c3ccc(Cl)cc3)c(C(Oc3ccc(-c4nnn[nH]4)cc3F)C3CCCCC3)c2cc1F (racemic) [Example 50, [rac]-2-(4-Chloro-phenyl)-3-{cyclohexyl-[2-fluoro-4-(1H-tetrazol-5-yl)-phenoxy]-methyl}-5,6-difluoro-2H-indazole] |
| 8.40 | Cc1cc(-c2nnn[nH]2)cc(C)c1OCC(c1c2ccccc2nn1-c1ccc(Cl)cc1)C1CCCCC1 (racemic) [Example 52, [rac]-2-(4-Chloro-phenyl)-3-{1-cyclohexyl-2-[2,6-dimethyl-4-(2H-tetrazol-5-yl)-phenoxy]-ethyl}-2H-indazole] |
| 6.14 | O=C(O)c1ccc(OCC(c2c3ccccc3nn2-c2ccc(Cl)cc2)C2CCCCC2)nc1 (racemic) [Example 53, [rac]-6-{2-[2-(4-Chloro-phenyl)-2H-indazol-3-yl]-2-cyclohexyl-ethoxy}-nicotinic acid] |
| 7.38 | O=C(O)C1(Oc2ccc(OCC(c3c4c(nn3-c3ccc(Cl)cc3)CCCC4)C3CCCCC3)cc2)CC1 (racemic) [Example 55, [rac]-1-(4-{2-[2-(4-Chloro-phenyl)-4,5,6,7-tetrahydro-2H-indazol-3-yl]-2-cyclohexyl-ethoxy}-phenoxy)-cyclopropanecarboxylic acid] |
| 6.77 | O=C(O)C1(Oc2ccc(OC(c3c4cc(F)c(F)cc4nn3-c3ccc(Cl)cc3)C3CCCCC3)cc2)CC1 (racemic) [Example 56, [rac]-1-(4-{[2-(4-Chloro-phenyl)-5,6-difluoro-2H-indazol-3-yl]-cyclohexyl-methoxy}-phenoxy)-cyclopropanecarboxylic acid] |
| 7.35 | O=C(Nc1ccc(-c2nnn[nH]2)cc1)C(c1c2c(nn1-c1ccc(Cl)cc1)CCCC2)C1CCCCC1 (racemic) [Example 57, [rac]-2-[2-(4-Chloro-phenyl)-4,5,6,7-tetrahydro-2H-indazol-3-yl]-2-cyclohexyl-N[4-(1H-tetrazol-5-yl)-phenyl]-acetamide] |
| 7.28 | O=C(Nc1ccc(-c2nnn[nH]2)cc1F)C(c1c2c(nn1-c1ccc(Cl)cc1)CCCC2)C1CCCCC1 (racemic) [Example 58, [rac]-2-[2-(4-Chloro-phenyl)-4,5,6,7-tetrahydro-2H-indazol-3-yl]-2-cyclohexyl-N-[2-fluoro-4-(1H-tetrazol-5-yl)-phenyl]-acetamide] |
| 6.60 | O=C(O)c1ccc(OCC(c2c3c(nn2-c2ccc(Cl)cc2)CCCC3)C2CCCCC2)nc1 (racemic) [Example 64, [rac]-6-{2-[2-(4-Chloro-phenyl)-4,5,6,7-tetrahydro-2H-indazol-3-yl]-2-cyclohexyl-ethoxy}-nicotinic acid] |
| 5.69 | O=C(Nc1ccc(OC2(C(=O)O)CC2)cc1F)C(c1c2c(nn1-c1ccc(Cl)cc1)CCCC2)C1CCCCC1 (single isomer, unassigned; (+)) [Example 22, (+)-1-(4-{2-[2-(4-Chloro-phenyl)-4,5,6,7-tetrahydro-2H-indazol-3-yl]-2-cyclohexyl-acetylamino}-3-fluoro-phenoxy)-cyclopropanecarboxylic acid] |
| 5.72 | O=C(NC1CCCCC1)C(c1c2ccccc2nn1-c1ccccc1)C1CCCCC1 (stereo not drawn) [Example 1, 2,N-Dicyclohexyl-2-(2-phenyl-2H-indazol-3-yl)-acetamide] |
| 5.04 | COc1cccc(C(C(=O)NC2CCCCC2)c2c3ccccc3nn2-c2ccccc2)c1 (stereo not drawn) [Example 2, N-Cyclohexyl-2-(3-methoxy-phenyl)-2-(2-phenyl-2H-indazol-3-yl)-acetamide] |
| 5.86 | O=C(NC1CCCCC1)C(c1c2ccccc2nn1-c1ccc(Cl)cc1)C1CCCCC1 (stereo not drawn) [Example 4, 2-[2-(4-Chloro-phenyl)-2H-indazol-3-yl]-2,N-dicyclohexyl-acetamide] |
| 6.81 | O=C(NC1CCCCC1)C(c1c2c(nn1-c1ccc(Cl)cc1)CCCC2)C1CCCCC1 (stereo not drawn) [Example 6, 2-[2-(4-Chloro-phenyl)-4,5,6,7-tetrahydro-2H-indazol-3-yl]-2,N-dicyclohexyl-acetamide] |
| 6.10 | O=C(O)c1ccc(NC(=O)C(c2c3c(nn2-c2ccc(Cl)cc2)CCCC3)C2CCCCC2)cc1 (stereo not drawn) [Example 7, 4-{2-[2-(4-Chloro-phenyl)-4,5,6,7-tetrahydro-2H-indazol-3-yl]-2-cyclohexyl-acetylamino}-benzoic acid] |
